Results on 3 molecules are retold here after patent US9977009B2, “Planar patch clamp device and planar patch clamp system” (Japan Science and Technology Agency, priority 2013, dated 2018).

Experiment [1] relates to nerve cells obtained by dissecting the cerebral cortex of a rat (neuron network). Kind of experiment: Channel current measurement of a neuron network with the composite multi-channel type planar patch clamp device (whole-cell mode). The format is cell-based. The conditions noted are these: applied membrane potential −20 mV; for increase of large area pulse channel current in the state of glutamic acid toxicity: CNQX (200 μM) and D-AP5 (200 μM) added together after 20 μM glutamic acid, about 60 minutes, FIG. 12(c). From the text: The composite multi-channel type planar patch clamp device (1b) of the present invention was used to conduct experiments showing that high throughput screening of drugs acting on a neural network is possible. At the cell fixing locations (24) of the Si substrate surface (2S) having approximately 2 micron size through holes (3) of the composite multi-channel type planar patch clamp device (1b) shown in FIG. 5, nerve cells (5) obtained by dissecting the cerebral cortex of a rat on day 17 of birth were seeded. The commercially available nerve cell medium (Sumitomo Bakelite) was added and the result cultured in a dish for 11 days to form a neuron network which was then observed by an optical microscope (FIG. 10). Next, the Si substrate (2) on which the nerve cells (5) were placed was set on the composite multi-channel type planar patch clamp device (1b) and the reservoir sections (22) of the first reservoir (6) were filled with the bath solution (145 mM NaCl+3 mM KCl+10 mM HEPES+2 mM CaCl2+8 mM Glucose+1 mM MgCl2.6H2O, pH7.3). […] A flat baseline was recorded without regard to the applied membrane potential. […] After measurement for about 60 minutes, to one reservoir section (22) of the first reservoir, a bath solution comprising the AMPA receptor antagonist 6-cyano-7-nitroquinoxaline-2,3-dione (CNQX)(200 μM) and NMDA receptor antagonist D-(−)-2-amino-5-phosphonopentanoic acid (D-AP5) (200 μM) dissolved in it was introduced and the channel current was again measured (FIG. 11C). […] To show these states clearer, the channel current of the applied membrane potential −20 mV was focused on and the area of each pulse-like wavelength observed was calculated. […] By filling the other reservoir sections (22) with other candidate drugs, making the valves (10) of the branch supply path (8b) and branch discharge path (9b) corresponding to the measured section the opened state, making the other valves (10) the closed state, and similarly measuring the channel current, it is possible to measure the effect of a candidate drug on the neuron network. […]

For experiment [2], the system named is Cerebral cortex cells of a rat (neuron network). Kind of experiment: Ca^2+ imaging of a neuron network. The class given is cell-based. The conditions noted are these: buffer solution (500 μl) containing 10 μM glutamic acid added; FIG. 13(b). The procedure:
Inside the 35 mm dish (a), the substrate of FIG. 6 (finished being coated by PLL) was placed. Cerebral cortex cells of a rat on day 17 of birth isolated by the enzyme trypsin were suspended by a commercially available nerve cell medium (Sumitomo Bakelite) to give 2.5×10^5 cells/ml. This cell suspension: 2 ml (=5.0×10^5 cells) was added to the dish (a). In the presence of 5% CO2, this was cultured at 37° C. for 17 days. After formation of the neuron network, this substrate was transferred to another dish (b). To this dish (b), a nerve cell medium (2 ml) was added. To this medium, BAPTA-1 (1 μl) and Cremophor (10 μl) were added and cultured at 37° C. for 1 hour. The culture supernatant was discarded and a buffer solution (145 mM NaCl+10 mM HEPES+8 mM Glucose+3 mM KCl+2 mM CaCl2+1 mM MgCl2, pH7.3): 2 ml was added. This was stored at room temperature away from the light until right before use and the Ca^2+ fluorescence intensity was measured (Ca^2+ imaging measurement) (FIG. 13(a)). After this, a buffer solution (500 μl) containing 10 μM concentration glutamic acid was added. After 2.5 minutes, time lapse measurement of Ca^2+ imaging was started (FIG. 13(b)). After 9.5 minutes, an antagonist mixture: 10 μl containing 2.5 mM D-AP5 and 2.5 mM CNQX was added. Furthermore, after 10.5 minutes, time lapse measurement of Ca^2+ imaging was performed (FIG. 13(c)).

Regarding `N#Cc1cc2c(cc1[N+](=O)[O-])=NC(=O)C(=O)N=2` [CNQX, 6-cyano-7-nitroquinoxaline-2,3-dione], the “increase of large area pulse channel current in the state of glutamic acid toxicity” value in experiment [1] is “substantially eliminated”.
Same read-out and setting: to `N[C@H](CCCP(=O)(O)O)C(=O)O` [D-AP5, D-(−)-2-amino-5-phosphonopentanoic acid] belongs “substantially eliminated”.
Turning to `N[C@@H](CCC(=O)O)C(=O)O` [glutamic acid], the “large area pulse channel current” value in experiment [1] (glutamic acid added to first reservoir, final concentration 20 μM, FIG. 12(b)) is recorded as “increases”. Besides, in experiment [2], the “concentration of Ca^2+ in the cells” value is “rise in a fluctuating manner”.
